Assays:
[1] = molecular target: TRIM24-BRAF fusion protein (Homo sapiens, UniProt P15056); details: NIH3T3 cells stably expressing TRIM24-BRAF, serum-starved, treated for 2 hours; FIG. 10C
Description: NIH3T3 cells stably transduced with plasmids expressing EZR-ERBB4 or TRIM24-BRAF cDNA or with empty plasmids were maintained in a serum-free medium overnight, and then treated with DMSO (Sigma) or the indicated inhibitor (dissolved in DMSO) for 2 hours. Whole-cell lysates were subjected to immunoblotting.
Cells were lysed in a RIPA buffer supplemented with Complete Protease and PhosSTOP Phosphatase Inhibitor Cocktail (Roche, Mannheim, Germany). Proteins were subjected to SDS-PAGE, followed by immunoblotting onto polyvinylidene difluoride membranes. The membranes were blocked for one hour with TBS supplemented with 0.1% Tween 20 and 1.0% BSA, and then probed with primary antibodies. After washing with TBS supplemented with 0.1% Tween 20, the membranes were incubated with horseradish peroxidase-conjugated anti-mouse or anti-rabbit secondary antibodies, and then visualized with an enhanced chemiluminescence reagent (Perkin Elmer, Waltham, Mass., USA). Signal intensity was calculated using the LAS3000 imaging system (Quansys Biosciences, West Logan, Utah, USA).

EZR-ERBB4 fusion protein = test: Constitutive activation of ERBB4 kinase by EZR-ERBB4 fusion and its inhibition (NIH3T3, immunoblotting); assay type: cell-based, mouse; details: NIH3T3 cells stably expressing EZR-ERBB4, serum-starved, treated for 2 hours; FIG. 10B
Source text: Whole-cell lysates were subjected to immunoblotting.

[2] = test system: HER2:HER3 signaling activated by CD74-NRG1 fusion in EFM-19 cells; test: HER2:HER3 signaling activation by CD74-NRG1 (EFM-19 reporter cells, conditioned medium, immunoblotting); assay type: cell-based, human; details: EFM-19 cells treated 30 minutes with conditioned medium from H1299 cells expressing CD74-NRG1; FIG. 10A
Description: To determine whether cells expressing CD74-NRG1 cDNA secreted NRG1 ligands that activate HER2:HER3 intracellular signaling, EFM-19 breast cancer cells which express both the ERRB2/HER2 and ERBB3/HER3 proteins were used as reporter cells, as previously described (Wilson T. R., et al., Cancer Cell., 2011, 20, 158-72). NCI-H1299 cells transiently transfected with CD74-NRG1-expressing plasmids or empty (control) plasmids were washed twice with PBS and serum-starved overnight by incubation in a serum-free medium. After harvesting of the medium, centrifugation was performed at 4° C. for 5 minutes to remove cell debris. […] Then, whole-cell lysates were subjected to SDS-PAGE and immunoblotting. Cells were lysed in a RIPA buffer supplemented with Complete Protease and PhosSTOP Phosphatase Inhibitor Cocktail (Roche, Mannheim, Germany). Proteins were subjected to SDS-PAGE, followed by immunoblotting onto polyvinylidene difluoride membranes. The membranes were blocked for one hour with TBS supplemented with 0.1% Tween 20 and 1.0% BSA, and then probed with primary antibodies. After washing with TBS supplemented with 0.1% Tween 20, the membranes were incubated with horseradish peroxidase-conjugated anti-mouse or anti-rabbit secondary antibodies, and then visualized with an enhanced chemiluminescence reagent (Perkin Elmer, Waltham, Mass., USA). Signal intensity was calculated using the LAS3000 imaging system (Quansys Biosciences, West Logan, Utah, USA).

Sequence of TRIM24-BRAF fusion protein (P15056 with tags, fused parts or gaps): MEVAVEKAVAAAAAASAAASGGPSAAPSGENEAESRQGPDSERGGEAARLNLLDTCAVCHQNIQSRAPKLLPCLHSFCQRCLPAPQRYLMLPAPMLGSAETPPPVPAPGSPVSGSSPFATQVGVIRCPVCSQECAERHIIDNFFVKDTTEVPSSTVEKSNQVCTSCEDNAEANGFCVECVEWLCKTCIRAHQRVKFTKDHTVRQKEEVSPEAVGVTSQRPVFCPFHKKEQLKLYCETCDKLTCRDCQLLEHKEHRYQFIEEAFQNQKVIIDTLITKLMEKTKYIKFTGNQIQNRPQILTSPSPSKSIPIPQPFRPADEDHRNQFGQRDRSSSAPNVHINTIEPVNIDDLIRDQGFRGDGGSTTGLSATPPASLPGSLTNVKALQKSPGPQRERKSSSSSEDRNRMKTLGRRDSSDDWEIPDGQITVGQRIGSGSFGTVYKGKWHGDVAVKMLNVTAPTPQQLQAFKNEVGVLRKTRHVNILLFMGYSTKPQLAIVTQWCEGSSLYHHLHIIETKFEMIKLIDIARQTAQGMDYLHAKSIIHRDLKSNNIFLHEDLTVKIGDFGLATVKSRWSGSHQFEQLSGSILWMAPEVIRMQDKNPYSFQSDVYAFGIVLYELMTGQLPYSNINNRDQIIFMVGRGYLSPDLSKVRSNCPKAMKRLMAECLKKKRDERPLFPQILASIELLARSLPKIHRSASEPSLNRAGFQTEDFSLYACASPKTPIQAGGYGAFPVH

N#CC(=C(/N)Sc1ccccc1N)/C(C#N)=C(\N)Sc1ccccc1N [U0126]
suppressed: ERK phosphorylation (activation) [1]

CS(=O)(=O)CCNCc1ccc(-c2ccc3ncnc(Nc4ccc(OCc5cccc(F)c5)c(Cl)c4)c3c2)o1 [lapatinib]
suppressed: Phosphorylation of ERBB4 (EZR-ERBB4 fusion protein) | Phosphorylation of ERK (EZR-ERBB4 fusion protein) | Phosphorylation of ERK [2] | Phosphorylation of HER2 (ERBB2) [2] | Phosphorylation of HER3 (ERBB3) [2]

— patent US20150057335A1, “NOVEL FUSION GENES IDENTIFIED IN LUNG CANCER” (National Cancer Center, priority 2013, published 2015)
